The source of these data is patent US20130164228A1, “COMPOSITIONS COMPRISING GALLATES AND GALLAMIDES” (Colgate-Palmolive Company, priority 2011, published 2013).

The nature of data set [1]: Vitro-Skin assay of potential uptake in skin. The data set is classed as in vitro ADME. An excerpt: Using a commercial Vitro-Skin® assay to measure potential uptake in skin, we see uptake from all the formulations, but have better uptake in the Dical formulation than in the silica/SLS formulation (units in micrograms/cm^2): • 0.2% THDG/CDC: 4.9 • 0.2% THDG/HSLS: 0.6 • 0.2% CHDG/CDC: 4.4 • 0.2% CHDG/[…] • 0.3% Triclosan (positive control): 7.7

Data set [2] relates to β-defensin release from human gingival epithelial cells. Briefly: Induction of anti-microbial peptides: β-defensin ELISA of supernatants. The data set is classed as cell-based. To be noted: 0.1% test compound. (In general: An ELISA detects its analyte on a solid surface through an enzyme-linked reagent.)
Data set [3] can be described thus: Stability/discoloration of THDG and CHDG (neat, solution, saliva, dentifrice). The data set is classed as physicochemical. Conditions: for stability in saliva (discoloration): 24 h at 37° C., subject specific, saliva pH 6.5-8; for discoloration in dentifrice, CDC base: in 2 weeks; for Stability of neat materials: neat powders; for discoloration of solutions in DMSO/water: pH 6.1-6.5, after 4M at RT; for discoloration in dentifrice, silica base: in 1 week.

For data set [4], the system named is LL-37 release from human gingival epithelial cells. Briefly: Induction of anti-microbial peptides: LL-37 ELISA of supernatants. Conditions: for LL-37 (ng/ml) at 0.05% after 16 hrs: 0.05% test compound; for LL-37 (ng/ml) at 0.1% after 4 hrs: 0.1% test compound. The data set is classed as cell-based.
The subject of data set [5] is Actinomyces viscosus (ATCC # 43146). Briefly: Antibacterial growth inhibition (GI) assay. Conditions: 100 ppm, OD610 at 2, 4, 6, 24 h. The data set is classed as cell-based. Here is the method: An overnight culture of Actinomyces viscosus (ATCC # 43146) is diluted to an OD610˜0.2 in sterile trypticase soy broth (TSB) Nine mls of diluted Actinomyces viscosus is added to triplicate 15 mls sterile culture tubes for each sample or control tested. One ml of each analog was added to the corresponding culture tube and briefly vortexed. Cultures are incubated at 37° C. in a shaking water bath. Supernatants are removed at 2, 4, 6, and 24 h and the OD610 read. Results from triplicate samples were averaged and growth is plotted as a function of time.

For data set [6], the system named is LL-37 production. Conditions: natural products with only one 1,2,3-trihydroxybenzene ring; cited from earlier work.

As for `O=C(O[C@@H]1CCCC[C@H]1OC(=O)c1cc(O)c(O)c(O)c1)c1cc(O)c(O)c(O)c1` (relative stereo) [THDG, trans-1,2 cyclohexanediol digallate], in data set [1] (0.2 %), the “uptake in Vitro-Skin from CDC formulation” value stood at 4.9 micrograms/cm^2 and the “uptake in Vitro-Skin from HSLS formulation” value turned out to be 0.6 micrograms/cm^2. For the same compound, the “β-defensin (ng/ml) at 0.1% after 4 hrs” value in data set [2] amounted to 280 ng/mL. In data set [3], the “stability in saliva (discoloration)” value is “no discoloration to deep green discoloration”, the “Stability of neat materials” value is given as “short term shelf stability acceptable” and the “discoloration of solutions in DMSO/water” value is “no discoloration”. Further, the “discoloration in dentifrice, CDC base” value in data set [3] (CDC base) is “slight discoloration”. Moreover, the “discoloration in dentifrice, silica base” value in data set [3] (silica base) is on record as “moderate discoloration”. Besides, in data set [4], the “LL-37 (ng/ml) at 0.05% after 16 hrs” value worked out at 5900 ng/mL and the “LL-37 (ng/ml) at 0.1% after 4 hrs” value turned out to be 4100 ng/mL.
`O=C(N[C@@H]1CCCC[C@H]1NC(=O)c1cc(O)c(O)c(O)c1)c1cc(O)c(O)c(O)c1` (relative stereo) [THDGA, trans-1,2-cyclohexane digallamide]: the “β-defensin (ng/ml) at 0.1% after 4 hrs” value in data set [2] was 1.5 ng/mL. In data set [4], the “LL-37 (ng/ml) at 0.05% after 16 hrs” value was 130 ng/mL and the “LL-37 (ng/ml) at 0.1% after 4 hrs” value turned out to be 100 ng/mL.
In the case of `CCCCOC(=O)c1cc(O)c(O)c(O)c1` [BG], the “β-defensin (ng/ml) at 0.1% after 4 hrs” value in data set [2] was 0 ng/mL. Moreover, in data set [4], the “LL-37 (ng/ml) at 0.05% after 16 hrs” value was 50 ng/mL and the “LL-37 (ng/ml) at 0.1% after 4 hrs” value turned out to be 100 ng/mL.
Regarding `O=C(O[C@H]1CCCC[C@H]1OC(=O)c1cc(O)c(O)c(O)c1)c1cc(O)c(O)c(O)c1` [CHDG, cis-1,2-cyclohexanediol digallate], the “β-defensin (ng/ml) at 0.1% after 4 hrs” value in data set [2] amounted to 150 ng/mL. Moreover, in data set [3], the “stability in saliva (discoloration)” value is “no discoloration to deep green discoloration”, the “Stability of neat materials” value is given as “short term shelf stability acceptable” and the “discoloration of solutions in DMSO/water” value is given as “no discoloration”. Further, the “discoloration in dentifrice, CDC base” value in data set [3] (CDC base) is “slight discoloration”. Further, the “discoloration in dentifrice, silica base” value in data set [3] (silica base) is listed as “moderate discoloration”. In data set [4], the “LL-37 (ng/ml) at 0.05% after 16 hrs” value stood at 3700 ng/mL and the “LL-37 (ng/ml) at 0.1% after 4 hrs” value amounted to 5200 ng/mL.
For `O=C(N[C@H]1CCCC[C@H]1NC(=O)c1cc(O)c(O)c(O)c1)c1cc(O)c(O)c(O)c1` [CHDGA, cis-1,2-cyclohexane digallamide], the “β-defensin (ng/ml) at 0.1% after 4 hrs” value in data set [2] is 0.7 ng/mL. Besides, in data set [4], the “LL-37 (ng/ml) at 0.05% after 16 hrs” value stood at 120 ng/mL and the “LL-37 (ng/ml) at 0.1% after 4 hrs” value was determined as 100 ng/mL.
For `O=C(O[C@H]1CCC[C@H]1OC(=O)c1cc(O)c(O)c(O)c1)c1cc(O)c(O)c(O)c1` [CPDG, cis-1,2-cyclopentanediol digallate], in data set [2], the “β-defensin (ng/ml) at 0.1% after 4 hrs” value came to 0.5 ng/mL. In addition, in data set [4], the “LL-37 (ng/ml) at 0.05% after 16 hrs” value worked out at 160 ng/mL and the “LL-37 (ng/ml) at 0.1% after 4 hrs” value came out at 120 ng/mL.
Take `O=C(O[C@@H]1Cc2c(O)cc(O)cc2O[C@@H]1c1cc(O)c(O)c(O)c1)c1cc(O)c(O)c(O)c1` [EGCG, epigallocatechin gallate, reference compound]: the “β-defensin (ng/ml) at 0.1% after 4 hrs” value in data set [2] came to 4.3 ng/mL. In data set [3] (CDC base), the “time to discoloration in dentifrice, CDC base” value came to 2 days. In data set [3] (same conditions: DMSO/water, RT), the “time to discoloration of solution in DMSO/water” value is less than 1 week. In addition, the “time to discoloration in dentifrice, silica base” value in data set [3] (silica base) is recorded as 2 days. In addition, the entries for the “LL-37 (ng/ml) at 0.05% after 16 hrs” value in data set [4] (listed as EGCG (source Kenko)) and in data set [4] (listed as EGCG (source TeaVigo)) were 15 ng/mL and 20 ng/mL, respectively. Besides, the “LL-37 (ng/ml) at 0.1% after 4 hrs” value in data set [4] turned out to be 160 ng/mL. For the same compound, the “antibacterial activity in bacterial culture” value in data set [5] is reported as “modest antibacterial activity”.
For `Oc1cc(Cl)ccc1Oc1ccc(Cl)cc1Cl` [Triclosan, triclosan, reference compound], the “uptake in Vitro-Skin, positive control” value in data set [1] (0.3% Triclosan) turned out to be 7.7 micrograms/cm^2.
For `Oc1cc(O)c2c(c1)O[C@H](c1cc(O)c(O)c(O)c1)[C@H](O)C2` [epigallocatechin], in data set [6], the “potency in LL-37 production compared with EGCG” value is reported as “significantly less potent”.
For the compound catechin gallate, the “potency in LL-37 production compared with EGCG” value in data set [6] is listed as “significantly less potent”.
